Tests used:
[1] = target: Sodium-dependent dopamine transporter (Homo sapiens, UniProt Q01959); experiment: Inhibition of dopamine uptake at human DAT in human HEK293 cells; format: cell-based
[2] = target: Sodium-dependent serotonin transporter (Homo sapiens, UniProt P31645); format: cell-based, HEK293;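 further: blockade of serotonin uptake through human SERT expressed in HEK293 cells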
[3] = target: Sodium-dependent noradrenaline transporter (Homo sapiens, UniProt P23975); experiment: Inhibition of norepinephrine uptake at human NET in human HEK293 cells; format: cell-based
Sodium-dependent noradrenaline transporter, sequence (P23975 whole entry): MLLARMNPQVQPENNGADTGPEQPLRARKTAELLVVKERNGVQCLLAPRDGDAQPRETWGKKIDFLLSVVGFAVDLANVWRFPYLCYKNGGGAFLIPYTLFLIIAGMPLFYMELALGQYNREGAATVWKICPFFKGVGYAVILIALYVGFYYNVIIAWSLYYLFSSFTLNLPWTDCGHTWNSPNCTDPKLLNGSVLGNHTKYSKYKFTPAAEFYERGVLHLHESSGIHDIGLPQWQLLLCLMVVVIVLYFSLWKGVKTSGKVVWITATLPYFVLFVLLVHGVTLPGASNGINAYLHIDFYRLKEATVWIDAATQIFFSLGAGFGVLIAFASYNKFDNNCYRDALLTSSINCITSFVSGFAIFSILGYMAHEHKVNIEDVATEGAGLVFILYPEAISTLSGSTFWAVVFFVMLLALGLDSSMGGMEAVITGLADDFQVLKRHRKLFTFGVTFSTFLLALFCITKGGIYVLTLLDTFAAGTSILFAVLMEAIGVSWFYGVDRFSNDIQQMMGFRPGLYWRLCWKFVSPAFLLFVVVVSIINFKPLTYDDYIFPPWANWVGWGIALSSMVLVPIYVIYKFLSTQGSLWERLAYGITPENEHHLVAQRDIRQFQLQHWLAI

[4] = target: 5-hydroxytryptamine receptor 2B (Homo sapiens) (UniProt P41595); experiment: Binding affinity to 5HT2B
5-hydroxytryptamine receptor 2B (Homo sapiens), sequence (P41595 whole entry): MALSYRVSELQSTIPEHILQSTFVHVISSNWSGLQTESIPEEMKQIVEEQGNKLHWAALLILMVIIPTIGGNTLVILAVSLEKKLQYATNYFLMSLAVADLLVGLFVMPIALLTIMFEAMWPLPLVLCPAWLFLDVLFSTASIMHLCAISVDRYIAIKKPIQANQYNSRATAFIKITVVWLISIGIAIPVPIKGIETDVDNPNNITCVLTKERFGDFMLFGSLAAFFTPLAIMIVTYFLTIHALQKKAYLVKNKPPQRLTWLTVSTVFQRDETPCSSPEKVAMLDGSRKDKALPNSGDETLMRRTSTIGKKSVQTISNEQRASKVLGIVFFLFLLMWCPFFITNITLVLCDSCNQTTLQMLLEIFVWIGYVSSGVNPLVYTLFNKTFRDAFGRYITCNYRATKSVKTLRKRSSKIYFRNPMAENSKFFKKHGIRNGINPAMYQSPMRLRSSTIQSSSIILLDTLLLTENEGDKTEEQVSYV

[5] = target: Cytochrome P450 2D6 (Homo sapiens, UniProt P10635); experiment: Inhibition of CYP2D6; format: ADME
Cytochrome P450 2D6, sequence (P10635 whole entry): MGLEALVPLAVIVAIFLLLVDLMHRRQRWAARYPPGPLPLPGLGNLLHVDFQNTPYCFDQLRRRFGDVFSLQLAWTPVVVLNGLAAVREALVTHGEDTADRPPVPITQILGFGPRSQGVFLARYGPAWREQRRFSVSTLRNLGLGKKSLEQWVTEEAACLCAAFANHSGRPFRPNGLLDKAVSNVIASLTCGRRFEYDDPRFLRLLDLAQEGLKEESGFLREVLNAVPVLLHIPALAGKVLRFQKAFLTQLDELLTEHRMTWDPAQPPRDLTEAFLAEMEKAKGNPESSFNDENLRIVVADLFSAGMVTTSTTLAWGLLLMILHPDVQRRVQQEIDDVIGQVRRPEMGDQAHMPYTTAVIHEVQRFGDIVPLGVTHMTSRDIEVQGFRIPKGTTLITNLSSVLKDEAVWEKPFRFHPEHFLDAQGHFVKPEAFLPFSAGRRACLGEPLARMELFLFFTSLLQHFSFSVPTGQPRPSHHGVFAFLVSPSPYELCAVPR

Sodium-dependent dopamine transporter, sequence (Q01959 whole entry): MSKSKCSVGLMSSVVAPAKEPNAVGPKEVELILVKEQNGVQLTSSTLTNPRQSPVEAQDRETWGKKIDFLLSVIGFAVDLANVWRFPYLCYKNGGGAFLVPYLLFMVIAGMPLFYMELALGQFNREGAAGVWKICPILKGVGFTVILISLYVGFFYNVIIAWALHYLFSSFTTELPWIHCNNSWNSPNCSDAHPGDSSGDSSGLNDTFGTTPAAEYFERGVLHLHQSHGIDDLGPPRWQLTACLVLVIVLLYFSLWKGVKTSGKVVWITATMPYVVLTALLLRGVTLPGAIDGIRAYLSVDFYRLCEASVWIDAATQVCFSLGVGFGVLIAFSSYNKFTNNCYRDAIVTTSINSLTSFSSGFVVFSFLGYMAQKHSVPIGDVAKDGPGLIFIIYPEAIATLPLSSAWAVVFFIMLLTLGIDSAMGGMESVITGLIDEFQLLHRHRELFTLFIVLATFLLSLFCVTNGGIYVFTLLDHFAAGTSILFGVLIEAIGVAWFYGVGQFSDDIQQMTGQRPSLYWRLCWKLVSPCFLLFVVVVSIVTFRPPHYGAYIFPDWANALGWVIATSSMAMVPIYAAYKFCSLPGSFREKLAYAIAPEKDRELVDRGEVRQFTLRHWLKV
Sodium-dependent serotonin transporter, sequence (P31645 whole entry): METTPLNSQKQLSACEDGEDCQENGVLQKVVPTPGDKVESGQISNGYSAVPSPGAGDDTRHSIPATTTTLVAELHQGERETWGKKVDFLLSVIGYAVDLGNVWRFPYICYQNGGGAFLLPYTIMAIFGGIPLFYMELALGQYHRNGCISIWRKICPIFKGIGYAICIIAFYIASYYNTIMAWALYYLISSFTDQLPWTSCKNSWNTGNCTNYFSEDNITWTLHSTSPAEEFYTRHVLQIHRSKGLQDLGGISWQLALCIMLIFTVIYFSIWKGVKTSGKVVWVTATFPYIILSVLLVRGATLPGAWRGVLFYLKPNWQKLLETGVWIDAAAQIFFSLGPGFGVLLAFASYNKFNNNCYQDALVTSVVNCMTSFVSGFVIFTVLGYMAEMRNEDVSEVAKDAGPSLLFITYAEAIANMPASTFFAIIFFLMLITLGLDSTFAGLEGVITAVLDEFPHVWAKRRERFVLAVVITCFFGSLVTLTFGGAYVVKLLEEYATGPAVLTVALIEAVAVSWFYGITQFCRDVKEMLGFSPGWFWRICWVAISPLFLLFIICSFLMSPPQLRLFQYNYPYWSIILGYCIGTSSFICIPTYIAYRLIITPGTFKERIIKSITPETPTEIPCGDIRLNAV

| Structure (SMILES) | IC50 [1] [nM] | IC50 [2] [nM] | IC50 [3] [nM] | Activity [4] [nM] | IC50 [5] [nM] |
| --- | --- | --- | --- | --- | --- |
| CN[C@@H]1Cc2ccccc2[C@H](Oc2ccccc2C)C1 | > 10000 | 3000 | 190 |  |  |
| CN[C@H]1Cc2ccccc2[C@H](Oc2ccccc2C)C1 | 8000 | 590 | 8 | 250 | 250 |
| COc1ccc(O[C@H]2C[C@@H](N(C)C)c3ccccc32)cc1 | > 10000 | 130 | 6000 |  |  |
| Cc1ccccc1O[C@@H]1C[C@@H](N(C)C)Cc2ccccc21 | > 10000 | 700 | 430 |  |  |
| Cc1ccccc1O[C@H]1C[C@H](N(C)C)c2ccccc21 | 3400 | 150 | 150 |  |  |
| CN[C@@H]1Cc2ccccc2[C@@H](Oc2ccccc2C)C1 | 4500 | 3300 | 200 |  |  |
| CN[C@H]1Cc2ccccc2[C@@H](Oc2ccccc2C)C1 | 6000 | 1100 | 160 |  |  |
| CN[C@@H]1C[C@H](Oc2ccccc2)c2ccccc21 (relative stereo) | 5000 | > 10000 | 2000 |  |  |
| CN[C@@H]1C[C@H](Oc2ccccc2C)c2ccccc21 (relative stereo) | 4600 | 1400 | 660 |  |  |
| CN[C@@H]1CC[C@H](Oc2ccccc2C)c2ccccc21 (relative stereo) | 1000 | 5000 | 520 |  |  |
| Cc1ccccc1O[C@H]1CC[C@@H](N)c2ccccc21 (relative stereo) | 1000 | 2300 | 630 |  |  |
| Cc1ccccc1O[C@@H]1CC[C@@H](N)c2ccccc21 (relative stereo) | 1000 | > 10000 | 950 |  |  |
| Cc1ccccc1O[C@H]1C[C@H](N)c2ccccc21 (relative stereo) | 600 | 10000 | 840 |  |  |
| CN[C@H]1C[C@H](Oc2ccccc2C)c2ccccc21 (relative stereo) | 180 | 370 | 72 |  |  |
| CCN[C@@H]1C[C@H](Oc2ccccc2C)c2ccccc21 (relative stereo) | 2500 | 8000 | 3000 |  |  |
| CCN(CC)[C@@H]1C[C@H](Oc2ccccc2C)c2ccccc21 (relative stereo) | 2500 | 3000 | 2000 |  |  |
| Cc1ccccc1O[C@H]1C[C@@H](N(C)C(C)C)c2ccccc21 (relative stereo) | > 10000 | > 10000 | 1100 |  |  |
| CN(C)[C@@H]1C[C@H](Oc2ccc(Cl)cc2)c2ccccc21 (relative stereo) | 7000 | 50 | 1600 |  |  |
| COc1ccccc1O[C@H]1C[C@@H](N(C)C)c2ccccc21 (relative stereo) | > 10000 | 3500 | 3000 |  |  |
| CN[C@@H]1C[C@H](Oc2ccc(Cl)cc2)c2ccccc21 (relative stereo) | 4000 | 320 | 4000 |  |  |
| N[C@@H]1C[C@H](Oc2ccc(Cl)cc2)c2ccccc21 (relative stereo) | 2400 | 9000 | 4000 |  |  |
| CN(C)[C@@H]1C[C@H](Oc2ccccc2)c2ccccc21 (relative stereo) | > 10000 | 2000 | 800 |  |  |
| Cc1ccccc1O[C@H]1C[C@@H](N(C)C)c2ccccc21 (relative stereo) | 10000 | 300 | 150 |  |  |
| N[C@@H]1C[C@H](Oc2ccccc2)c2ccccc21 (relative stereo) | 2000 | > 10000 | 5000 |  |  |
| CNCCC(Oc1ccccc1OC)c1ccccc1 (stereo not given) [NISOXETINE] |  | 1400 |  |  |  |

— ChEMBL document CHEMBL1157521, “Discovery of a potent, selective, and less flexible selective norepinephrine reuptake inhibitor (sNRI)” (Bioorg Med Chem Lett, 2008)
